Experimental data published in patent US10124065B2, “Lipids and lipid compositions for the delivery of active agents” (Novartis AG, priority 2013, dated 2018).

Assay: Measurement of mRNA encapsulation (Quant-iT Ribogreen)
Assay type: physicochemical
Conditions: leptin mRNA in lipid nanoparticles (cationic lipid, DSPC, cholesterol, stealth lipid)
Method: All equipment and disposable supplies were certified free of RNase activity by the manufacturer or rendered RNase free by use of the RNaseZap reagent (LifeTechnologies). mRNA was encapsulated at a cationic lipid amine to mRNA phosphate (N:P) molar ratio of 4:1. Lipids (cationic lipid, DSPC, cholesterol and lipidated PEG or stealth lipid) were dissolved in ethanol. The molar ratios were […], respectively. The mixture was sonicated briefly, then gently agitated for 5 minutes and then maintained at 37° C. until use. mRNA was exchanged into citrate buffer pH 5.8-6.0 by use of Amicon Ultra-15 centrifugal concentrators, and the final concentration was adjusted to 0.5 mg/ml and held at 37° C. until use. An equal volume of lipids in ethanol, mRNA in citrate buffer, and citrate buffer alone were drawn into disposable syringes. Tubing leading from syringes containing lipids and mRNA are attached to the T junction, and tubing leading from the syringe containing citrate buffer alone was paired with the tubing exiting the T-junction over a collection vessel containing a stir bar on an active stir plate. Syringes were placed in a syringe pump set to expel contents at a flow rate of 1 ml per minute.
The pump was activated, and the collected mRNA in lipid nanoparticles was transferred to SnakeSkin dialysis tubing (10,000 MWCO, Thermo Scientific). Material was dialyzed against RNAse- and pyrogen-free 1× phosphate buffered saline overnight at 4° C.
Percent encapsulation of mRNA in lipid nanoparticles was determined using the Quant-iT Ribogreen RNA Assay kit (Life Technologies). The LNP-mRNA suspension was assayed in buffer (mRNA outside the particle), and buffer plus Triton X-100 detergent (total mRNA). The difference calculated was the mRNA inside the particle. A 1000 ng/mL stock from the RNA provided in the kit was prepared and used to generate a standard curve (0 ng/ml, 15.63-1000 ng/ml) in TE and TE+0.75% Triton X-100. LNP-mRNA samples in TE buffer and TE buffer+0.75% Triton X-100 were prepared with appropriate dilution so that reading was in the range of standard curve (400-2,000 fold). In a 384-well plate (Costar non-treated #3573) 0.04 ml of standard (in duplicate) or sample (in triplicate) were added per well. Ribogreen reagent was diluted 240-fold in TE buffer and added 0.06 ml per well. The contents of wells were mixed and fluorescence was measured (excitation=480 nm, emission=520 nm). Background values (no RNA) were subtracted from standard and test sample values and the concentrations of RNA were determined in the samples using the standard curves. The percent encapsulation of the sample was determined by dividing the difference in concentrations between sample+triton and sample in buffer alone by the sample+triton concentration.

% encapsulation: 96.0%
Compound: CCCCCCCCCCOC(=O)CCCCCCCOc1cc(CN(C)C)cc(OCCCCCCCC(=O)OCCCCCCCCCC)c1 [Example 57, didecyl 8,8′-((5-((dimethylamino)methyl)-1,3-phenylene)bis(oxy))dioctanoate]
